Reference: US12486256B2, “Crystal forms of crenolanib and methods of use thereof” (Arog Pharmaceuticals, Inc., priority 2020, dated 2025)

What was measured:
Type in all cases: physicochemical
[1] = Dynamic Vapor Sorption (DVS), hygroscopicity of polymorphic forms; details: for form change during DVS cycling / post-DVS (XRPD): XRPD of retained solid
Description: Dynamic Vapor Sorption (DVS) was used to determine the hygroscopicity of stable polymorphic forms. Approximately 10-20 milligrams of sample was placed in to a mesh vapor sorption balance pan and loaded into an intrinsic dynamic vapor sorption balance by Surface Measurement Systems. The sample was subjected to ramping profile from 40-90% relative humidity (RH) at 10% increments, maintain the sample at each step until as table weight had been achieved (dm/dt 0.0004%, minimum step length 30 minutes, maximum step length 500 minutes) at 25° C. After completion of the sorption cycle, the sample was dried using the same procedure to 0% RH and then a second sorption cycle back to 40% RH. Two cycles were performed. The weight change during the sorption/desorption cycles were plotted, allowing for the hygroscopic nature of the sample tot be determined. XRPD was then carried out on any solid retained to determine if there was change between polymorphic forms during the process.

[2] = Competitive slurry, thermodynamic stability of crystalline forms; details: competitive slurry conditions, Form III seeds present; monobenzenesulfonate
[3] = Solubility in aqueous solutions; details: aqueous solutions at neutral pH
[4] = TGA/DSC, thermal degradation; details: 10° C./min
Description: Thermogravimetric Analysis/Differential Scanning calorimetry (TGA/DSC) was used to determine the phase transition and degradation points as well as the hydrated/solvated states of the various polymorphic forms identified. Approximately 5-10 milligrams of material was added into a pre-tared open aluminum pan and loaded into a TA Instruments SDT 650 Auto-Simultaneous DSC and held at room temperature. The sample was then heated at a rate of 10° C./min from 30° C. to 400° C. during which time the change in sample weight was recorded along with the heat flow response (DSC). Nitrogen was used as the sample purge gas, at a flow rate of 200 cm^3/min. Skilled artisans will appreciate that ambient laboratory conditions may cause slight variability in these readings.

[5] = DVS, 25° C., monobenzenesulfonate
[6] = DVS at 90% relative humidity, 25° C., monobenzenesulfonate

SMILES	form change during DVS cycling / post-DVS (XRPD) ([1]; monobenzenesulfonate)	hygroscopicity [1, 5]	thermodynamic stability / form conversion [2]	mass uptake [1, 6]	solubility relative to other forms [3]	onset of thermal degradation [4] [°C]	mass uptake ([1]; DVS, desolvated form, between 0% and 10% humidity) [%]	mass loss (desolvation) ([1]; DVS, during the first cycle) [%]	onset of thermal degradation ([4]; monobenzenesulfonate) [°C]
CC1(COc2ccc3c(c2)ncn3-c2ccc3cccc(N4CCC(N)CC4)c3n2)COC1.O=S(=O)(O)c1ccccc1 [Form I, 1-[2-[5-[(3-Methyl-3-oxetanyl)methoxy]-1H-benzimidazol-1-yl]-8-quinolinyl]-4-piperidinamine monobenzenesulfonate]	No form change	non-hygroscopic	will convert to Form III						
CC1(COc2ccc3c(c2)ncn3-c2ccc3cccc(N4CCC(N)CC4)c3n2)COC1.O=S(=O)(O)c1ccccc1 [Form II, 1-[2-[5-[(3-Methyl-3-oxetanyl)methoxy]-1H-benzimidazol-1-yl]-8-quinolinyl]-4-piperidinamine monobenzenesulfonate]	No form change	slightly hygroscopic		approximately 1.5%	more soluble in aqueous solutions at neutral pH than the anhydrous Forms I and III	165			
CC1(COc2ccc3c(c2)ncn3-c2ccc3cccc(N4CCC(N)CC4)c3n2)COC1.O=S(=O)(O)c1ccccc1 [Form III, 1-[2-[5-[(3-Methyl-3-oxetanyl)methoxy]-1H-benzimidazol-1-yl]-8-quinolinyl]-4-piperidinamine monobenzenesulfonate]	No form change	slightly hygroscopic	most thermodynamically stable crystalline form	approximately 1.5%					
CC1(COc2ccc3c(c2)ncn3-c2ccc3cccc(N4CCC(N)CC4)c3n2)COC1.O=S(=O)(O)c1ccccc1 [Form IV, 1-[2-[5-[(3-Methyl-3-oxetanyl)methoxy]-1H-benzimidazol-1-yl]-8-quinolinyl]-4-piperidinamine monobenzenesulfonate]	converts to the hemi-hydrated Form II	hygroscopic					1.5	9.4	241
